# Reference: patent US20240180880A1, “METHODS OF USING EHMT2 INHIBITORS IN TREATING OR PREVENTING BLOOD DISORDERS” (Epizyme, Inc., priority 2017, published 2024)
# How the values were obtained:
# Assay type in all cases: cell-based
# Various cell lines = test: Cotreatment model (7-day) combination proliferation assay, cellular ATP luminescence, Loewe synergy; conditions: several cell lines, Compound 205 and DNA hypomethylating agents, 7-day cotreatment models (FIG. 1D)
# Description: Cells were incubated for seven days under humidified atmosphere of 5% CO2 at 37° C. The final concentration of DMSO (vehicle) in the assay was 0.1% v/v. Quantification of proliferation through measurement of cellular adenosine triphosphate (ATP) was performed via a luminescent cell viability assay. Plates were read in a plate reader with luminescence module. Quantification of synergy was performed using the Loewe Additivity model and calculating the Loewe Volume (V Loewe) with the Chalice Software (Horizon) and dose response curves and IC50 vs concentration plots were generated with Graphpad Prism software.
# [1] = test system: Human CD34+ progenitor cells; test: Human CD34+ progenitors assay, HbF (Hbγ) quantitation by mass spectrometry; conditions: compound 205 with Hydroxyurea, matrix format, CD34+ cells from a pool of 5 healthy donors; Loewe excess in Chalice
# Source text: (§1) An in-vitro system to test the ability of compound to induce fetal hemoglobin expression was developed. This system used Human CD34+ progenitor cells freshly isolated from healthy donors blood collections. Peripheral blood mononuclear cells (PBMCs) were isolated from whole blood by density gradient centrifugation using SepMatem-50 and Lymphoprep™ from Stem Cell Technologies. CD34^+ hematopoietic progenitor cells (HSPCs) were isolated from PBMCs by magnetic separation using Stem Cells Technologies CD34+ positive selection/isolation kit (Stem Cell Technologies, #18056). CD34 cells were cultured using a 2-phase 14 day culture system. During phase 1 (day 0 to day 7) cells were expanded. Expansion was followed by phase 2 (day 7 to day 14) where cells were differentiated toward the erythroid lineage. Compounds were added on day 1 and day 7 as 1000× stock after being diluted in dimethyl sulfoxide (DMSO) in a 3-fold series. […] At day 14 cells were harvested for Fluorescent Activated Cell Sorting (FACS) analysis and for HbF quantitation by Mass spectrometry. […] Data was analyzed using FlowJo software. % HbF^+ cells and ratios H3/H3K9me2 intensities were calculated for CD71^+/CD235a^+ gated populations.
# Hydroxyurea was also evaluated as single agent and in combination with the EHMT1/2 inhibitor compound 205 in a matrix format using CD34^+ cells isolated from a pool of 5 healthy donors. […]
# [2] = test system: Human CD34+ progenitor cells; test: Cell viability in the human CD34+ progenitors HbF induction assay
# Source text: as §1, with “expanded.” for “expanded. Expansion was followed by phase 2 (day 7 to day 14) where cells were differentiated toward the erythroid lineage. Compounds were added on day 1 and day 7 as 1000× stock after being diluted in dimethyl sulfoxide (DMSO) in a 3-fold series.”
# A list of pharmacological agents was evaluated for their potential to induce fetal Hemoglobin (HbF) in order to identify combination partners for our EHMT1/2 inhibitors. HbF can be induced by toxicity; therefore, the potential of the agents to induce HbF were evaluated in the context of cell viability. […] The EHMT1/2 inhibitor Compound 205 was evaluated in combination with a fixed dose of 10 μM Hydroxyurea and 0.1 μM Pomalidomide. […]
smiles,measurement,setting,value
CNc1cc(C)nc(Nc2ccc(OC)c(OCCCN3CCCC3)c2)n1 [Compound 205],combination effect on proliferation (Loewe),Various cell lines,synergy
same,combination effect on Hbγ protein expression (MS quantification),[1],synergistically
same,cell viability,[2]; 0.016 μM compound 205 in combination with 0.1 μM Pomalidomide,> 90%
same,cell viability,[2]; 0.016 μM compound 205 in combination with 10 μM Hydroxyurea,> 90%
